Measurements from ChEMBL document CHEMBL1201862, “PubChem BioAssay data set” (2004).
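Assay format: 96-well plates, 48-hour exposure. GI50: concentration for 50% inhibition of growth.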 Active and inactive are the calls of the source. Rule as the data show it: active = GI50 up to about 1.1 µM and inactive = higher.

Columns and labels:
Assay in all cases: growth of human tumour cells (NCI), 48 h
[1] = tested on: CAKI-1
[2] = tested on: COLO 205
[3] = tested on: EKVX
[4] = tested on: K562
[5] = tested on: MOLT-4
[6] = tested on: NCI-H226
[7] = tested on: NCI-H522
[8] = tested on: OVCAR-5
[9] = tested on: SF-268
[10] = tested on: SF-295
[11] = tested on: SK-MEL-28
[12] = tested on: SK-MEL-5
[13] = tested on: SN12C
[14] = tested on: SNB-19
[15] = tested on: SNB-78
[16] = tested on: UACC-257
[17] = tested on: HCT-116
[18] = tested on: SR
[19] = tested on: BT-549
[20] = tested on: PC-3

SMILES | GI50 [1] | GI50 [2] | GI50 [3] | GI50 [4] | GI50 [5] | GI50 [6] | GI50 [7] | GI50 [8] | GI50 [9] | GI50 [10] | GI50 [11] | GI50 [12] | GI50 [13] | GI50 [14] | GI50 [15] | GI50 [16] | GI50 [17] | GI50 [18] | GI50 [19] | GI50 [20]
CC1(c2ccccc2Cl)C(C#N)C(=O)NC(=O)C1C#N (stereo not given) | > 100 µM (inactive) | 45 µM (inactive) | 24.5 µM (inactive) | 27.4 µM (inactive) | 31.2 µM (inactive) | 27.5 µM (inactive) | 20.8 µM (inactive) | 91 µM (inactive) | 35.8 µM (inactive) | 32.7 µM (inactive) | 37.8 µM (inactive) | 25.8 µM (inactive) | 28.7 µM (inactive) | 28.7 µM (inactive) | 55.6 µM (inactive) | 30.5 µM (inactive) | – | – | – | –
CSc1snc2sc3c(Cl)nnnc3c12 | 4.42 µM (inactive) | 10.5 µM (inactive) | 19.6 µM (inactive) | 2.36 µM (inactive) | 2.98 µM (inactive) | – | – | 17.2 µM (inactive) | 16.9 µM (inactive) | 18 µM (inactive) | 10.6 µM (inactive) | 16.7 µM (inactive) | 15.3 µM (inactive) | 15.8 µM (inactive) | 13.8 µM (inactive) | 12.8 µM (inactive) | 16 µM (inactive) | – | – | –
O=C(COc1ccc2c(=O)cc(-c3ccccc3)oc2c1)N1CCN(c2ccccc2)CC1 | – | 37 µM (inactive) | 28.4 µM (inactive) | 18 µM (inactive) | 11.1 µM (inactive) | 72.4 µM (inactive) | 18.8 µM (inactive) | 34.6 µM (inactive) | 46.2 µM (inactive) | 52.6 µM (inactive) | 49.8 µM (inactive) | 25.4 µM (inactive) | 41.4 µM (inactive) | 36.6 µM (inactive) | > 100 µM (inactive) | 43 µM (inactive) | 71.8 µM (inactive) | – | – | –
C=CC1=C(C)c2cc3[nH]c(cc4nc(cc5[nH]c(cc1n2)c(C)c5CCC(=O)N(CC)CC)C(CCC(=O)N(CC)CC)=C4C)c(C)c3C=C | – | – | > 100 µM (inactive) | > 100 µM (inactive) | > 100 µM (inactive) | – | > 100 µM (inactive) | 74.5 µM (inactive) | – | 61.2 µM (inactive) | > 100 µM (inactive) | > 100 µM (inactive) | > 100 µM (inactive) | – | > 100 µM (inactive) | > 100 µM (inactive) | > 100 µM (inactive) | > 100 µM (inactive) | – | –
CSc1nc(NC2OC(COC(C)=O)C(OC(C)=O)C(OC(C)=O)C2OC(C)=O)c(/N=C/C=N/c2c(NC3OC(COC(C)=O)C(OC(C)=O)C(OC(C)=O)C3OC(C)=O)nc(SC)[nH]c2=O)c(=O)[nH]1 (stereo not given) | – | > 100 µM (inactive) | > 100 µM (inactive) | > 100 µM (inactive) | – | – | > 100 µM (inactive) | > 100 µM (inactive) | > 100 µM (inactive) | > 100 µM (inactive) | > 100 µM (inactive) | > 100 µM (inactive) | > 100 µM (inactive) | > 100 µM (inactive) | > 100 µM (inactive) | > 100 µM (inactive) | > 100 µM (inactive) | > 100 µM (inactive) | – | –
O=C1OCC(C(=O)c2cccc(O)c2)C1=O (stereo not given) | > 100 µM (inactive) | > 100 µM (inactive) | > 100 µM (inactive) | – | – | > 100 µM (inactive) | > 100 µM (inactive) | > 100 µM (inactive) | > 100 µM (inactive) | > 100 µM (inactive) | > 100 µM (inactive) | > 100 µM (inactive) | > 100 µM (inactive) | > 100 µM (inactive) | > 100 µM (inactive) | > 100 µM (inactive) | > 100 µM (inactive) | – | – | –
CCCC[C@@H]1CCN2C[C@@H](O)[C@@H](O)[C@@H]2[C@H]1O | > 100 µM (inactive) | > 100 µM (inactive) | > 100 µM (inactive) | > 100 µM (inactive) | > 100 µM (inactive) | > 100 µM (inactive) | > 100 µM (inactive) | > 100 µM (inactive) | > 100 µM (inactive) | > 100 µM (inactive) | > 100 µM (inactive) | > 100 µM (inactive) | > 100 µM (inactive) | > 100 µM (inactive) | – | > 100 µM (inactive) | > 100 µM (inactive) | > 100 µM (inactive) | > 100 µM (inactive) | > 100 µM (inactive)
O=C1NC(=O)C(C(=O)C(=O)Nc2ccc(Cl)cc2Cl)C(=O)N1 | > 100 µM (inactive) | > 100 µM (inactive) | > 100 µM (inactive) | > 100 µM (inactive) | > 100 µM (inactive) | – | – | > 100 µM (inactive) | – | > 100 µM (inactive) | – | > 100 µM (inactive) | – | > 100 µM (inactive) | > 100 µM (inactive) | > 100 µM (inactive) | > 100 µM (inactive) | – | – | –
C#Cc1cccc(NC(=O)/C=C\C(=O)O)c1 | > 100 µM (inactive) | > 100 µM (inactive) | > 100 µM (inactive) | > 100 µM (inactive) | > 100 µM (inactive) | > 100 µM (inactive) | > 100 µM (inactive) | > 100 µM (inactive) | > 100 µM (inactive) | > 100 µM (inactive) | > 100 µM (inactive) | > 100 µM (inactive) | > 100 µM (inactive) | > 100 µM (inactive) | > 100 µM (inactive) | > 100 µM (inactive) | > 100 µM (inactive) | – | – | –
COc1ccc(C[C@H]2NC[C@H](O)[C@H]2OC(C)=O)cc1 [ANISOMYCIN] | 0.0106 µM (active) | < 0.0121 µM (active) | 0.0361 µM (active) | < 0.0124 µM (active) | < 0.013 µM (active) | 0.0234 µM (active) | < 0.0198 µM (active) | 0.0478 µM (active) | 0.0361 µM (active) | < 0.0184 µM (active) | 0.0239 µM (active) | 0.0133 µM (active) | 0.0166 µM (active) | < 0.0177 µM (active) | – | 0.0359 µM (active) | < 0.015 µM (active) | < 0.0143 µM (active) | 0.0411 µM (active) | < 0.0191 µM (active)
C=C(C(=O)OC)[C@@H]1C[C@@H](OC(C)=O)C2=C[C@H](C[C@@]3(C)O[C@@H]3C3=CC(C)=C(O3)[C@H]1OC(C)=O)OC2=O [BIPINNATIN I] | 7.74 µM (inactive) | 10.8 µM (inactive) | 18.4 µM (inactive) | 6.84 µM (inactive) | 2.16 µM (inactive) | 90.8 µM (inactive) | 2.59 µM (inactive) | 17.9 µM (inactive) | 36.1 µM (inactive) | 27 µM (inactive) | 16.2 µM (inactive) | 15.2 µM (inactive) | 22.4 µM (inactive) | 47.6 µM (inactive) | – | 18.2 µM (inactive) | 10.4 µM (inactive) | 9.38 µM (inactive) | 12.9 µM (inactive) | 25.2 µM (inactive)
CC(=O)O[C@@H]1CO[C@H]2O[C@H]3[C@@H](C(C=O)=C[C@H](O)[C@@H]4C5=C(C(C)C)CC[C@]5(C)CC[C@@]34C)[C@@]2(O)C1=O [STRIATIN E] | 0.2 µM (active) | 0.0769 µM (active) | 0.359 µM (active) | 0.0869 µM (active) | 0.0906 µM (active) | 0.378 µM (active) | 0.0803 µM (active) | 0.303 µM (active) | 0.24 µM (active) | 0.586 µM (active) | 0.234 µM (active) | 0.267 µM (active) | 0.156 µM (active) | 0.692 µM (active) | – | 0.219 µM (active) | 0.076 µM (active) | 0.146 µM (active) | 0.12 µM (active) | 0.0968 µM (active)
